Data on two compounds can be found in article PMC5310657, “Effects of an unusual poison identify a lifespan role for Topoisomerase 2 in Saccharomyces cerevisiae” (Aging (Albany NY), 2017).

Molecules are shown by their SMILES.

What all share (assay type): biochemical
In assay [1] the target is T1, yeast topoisomerase 2 (yTop2) (Saccharomyces cerevisiae, UniProt P06786).
T1 construct: gene TOP2
T1 sequence (P06786 1-1428): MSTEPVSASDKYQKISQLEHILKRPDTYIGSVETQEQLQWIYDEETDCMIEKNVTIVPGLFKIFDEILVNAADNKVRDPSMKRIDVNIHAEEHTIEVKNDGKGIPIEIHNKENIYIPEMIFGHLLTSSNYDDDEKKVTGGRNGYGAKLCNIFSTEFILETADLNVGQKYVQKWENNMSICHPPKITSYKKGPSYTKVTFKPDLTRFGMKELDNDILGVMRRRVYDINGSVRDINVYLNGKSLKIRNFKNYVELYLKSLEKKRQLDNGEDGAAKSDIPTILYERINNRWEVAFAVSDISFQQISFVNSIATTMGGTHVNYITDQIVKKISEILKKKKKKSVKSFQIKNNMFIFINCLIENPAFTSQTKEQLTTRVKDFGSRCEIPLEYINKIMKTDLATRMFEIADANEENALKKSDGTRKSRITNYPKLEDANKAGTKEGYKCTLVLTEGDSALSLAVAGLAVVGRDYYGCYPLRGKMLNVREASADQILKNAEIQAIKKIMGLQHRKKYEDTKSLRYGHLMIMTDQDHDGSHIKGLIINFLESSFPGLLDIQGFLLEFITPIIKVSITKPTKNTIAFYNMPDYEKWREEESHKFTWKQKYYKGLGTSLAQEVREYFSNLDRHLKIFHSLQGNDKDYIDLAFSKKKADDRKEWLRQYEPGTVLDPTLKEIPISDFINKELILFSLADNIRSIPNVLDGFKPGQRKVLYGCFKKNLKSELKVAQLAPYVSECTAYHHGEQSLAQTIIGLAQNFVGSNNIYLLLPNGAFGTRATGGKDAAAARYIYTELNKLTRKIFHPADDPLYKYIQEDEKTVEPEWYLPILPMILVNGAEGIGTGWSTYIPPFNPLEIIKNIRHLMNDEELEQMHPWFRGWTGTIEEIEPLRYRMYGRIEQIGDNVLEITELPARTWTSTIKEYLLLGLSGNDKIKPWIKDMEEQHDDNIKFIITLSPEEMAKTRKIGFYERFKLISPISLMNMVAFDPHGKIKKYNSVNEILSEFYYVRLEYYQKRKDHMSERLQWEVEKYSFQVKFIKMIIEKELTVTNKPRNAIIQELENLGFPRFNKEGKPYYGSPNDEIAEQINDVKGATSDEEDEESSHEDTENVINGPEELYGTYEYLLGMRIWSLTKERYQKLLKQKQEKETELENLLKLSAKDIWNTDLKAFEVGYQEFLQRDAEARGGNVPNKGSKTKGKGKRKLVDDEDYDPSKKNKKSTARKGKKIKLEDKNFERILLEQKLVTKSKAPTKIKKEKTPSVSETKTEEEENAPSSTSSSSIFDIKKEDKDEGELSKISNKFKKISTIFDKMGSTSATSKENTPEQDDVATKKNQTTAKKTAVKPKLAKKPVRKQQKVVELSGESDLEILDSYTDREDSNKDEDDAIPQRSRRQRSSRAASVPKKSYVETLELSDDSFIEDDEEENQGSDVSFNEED
The assay is described as follows: in vitro pUC18 plasmid linearization (DNA cleavage) assay, reference Top2 poison.

For assay [2], the target named is T2, human Top2α (Homo sapiens, UniProt P11388).
T2 construct: gene TOP2A
The experiment in a line: kinetoplast DNA decatenation assay with purified human TOP2-α.

Assay [3] has as its target T1, yeast topoisomerase 2 (yTop2). The experiment in a line: in vitro pUC18 plasmid linearization (DNA cleavage) assay; supported by TOP2 overexpression hypersensitivity and resistant top2 mutants.

T2 sequence (P11388 whole entry): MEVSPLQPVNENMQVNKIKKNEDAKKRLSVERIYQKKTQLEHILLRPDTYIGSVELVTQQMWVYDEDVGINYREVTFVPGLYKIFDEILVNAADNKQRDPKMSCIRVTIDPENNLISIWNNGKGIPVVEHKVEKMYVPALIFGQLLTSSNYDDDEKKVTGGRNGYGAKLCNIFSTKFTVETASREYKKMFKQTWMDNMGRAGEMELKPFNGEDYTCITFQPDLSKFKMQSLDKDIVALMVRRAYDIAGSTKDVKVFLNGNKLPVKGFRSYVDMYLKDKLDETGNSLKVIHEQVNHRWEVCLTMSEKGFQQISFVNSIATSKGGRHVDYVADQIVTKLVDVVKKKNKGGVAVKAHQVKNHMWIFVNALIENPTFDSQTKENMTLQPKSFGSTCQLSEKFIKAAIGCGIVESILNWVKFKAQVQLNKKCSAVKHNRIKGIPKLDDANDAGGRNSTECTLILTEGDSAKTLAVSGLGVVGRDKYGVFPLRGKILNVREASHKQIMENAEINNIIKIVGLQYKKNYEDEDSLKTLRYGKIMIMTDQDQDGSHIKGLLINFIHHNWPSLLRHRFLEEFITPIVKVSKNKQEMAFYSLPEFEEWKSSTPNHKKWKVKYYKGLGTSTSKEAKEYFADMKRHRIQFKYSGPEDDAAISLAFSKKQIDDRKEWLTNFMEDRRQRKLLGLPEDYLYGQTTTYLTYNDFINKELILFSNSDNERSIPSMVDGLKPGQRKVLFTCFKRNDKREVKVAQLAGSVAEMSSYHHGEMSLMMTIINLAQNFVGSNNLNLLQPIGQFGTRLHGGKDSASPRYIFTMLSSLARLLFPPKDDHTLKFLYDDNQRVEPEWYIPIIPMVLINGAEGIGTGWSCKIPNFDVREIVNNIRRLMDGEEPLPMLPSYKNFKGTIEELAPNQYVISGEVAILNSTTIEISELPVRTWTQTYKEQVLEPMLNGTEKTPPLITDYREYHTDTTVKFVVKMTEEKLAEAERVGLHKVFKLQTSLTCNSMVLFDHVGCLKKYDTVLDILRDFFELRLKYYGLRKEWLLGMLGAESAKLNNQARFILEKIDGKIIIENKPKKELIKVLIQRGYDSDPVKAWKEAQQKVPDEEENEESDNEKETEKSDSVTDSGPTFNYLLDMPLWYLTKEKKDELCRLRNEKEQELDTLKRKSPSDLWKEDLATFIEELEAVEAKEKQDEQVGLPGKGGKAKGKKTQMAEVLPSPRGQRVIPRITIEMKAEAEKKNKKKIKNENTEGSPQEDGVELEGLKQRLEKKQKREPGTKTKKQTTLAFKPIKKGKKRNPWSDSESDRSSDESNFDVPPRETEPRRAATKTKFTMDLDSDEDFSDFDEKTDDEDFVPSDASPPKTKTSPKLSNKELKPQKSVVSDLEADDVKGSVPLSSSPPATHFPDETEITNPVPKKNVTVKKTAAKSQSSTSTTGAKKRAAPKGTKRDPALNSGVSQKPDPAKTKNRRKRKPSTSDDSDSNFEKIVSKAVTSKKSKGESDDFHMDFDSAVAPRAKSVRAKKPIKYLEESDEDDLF

With `COc1cc([C@@H]2c3cc4c(cc3[C@@H](O[C@@H]3O[C@@H]5CO[C@@H](C)O[C@H]5[C@H](O)[C@H]3O)[C@H]3COC(=O)[C@H]23)OCO4)cc(OC)c1O` [ETOP, etoposide], in assay [1], the “in vitro pUC18 plasmid linearization (DNA cleavage) assay, reference Top2 poison” value was “formation by yTop2 of DSBs in plasmid DNA (Fig. 7A & B), albeit less efficiently than etoposide”. A word on the IC50: it is the midpoint of a concentration-inhibition curve. A high value points to weaker potency in that assay. Turning to `c1ccc2nc3c(nc2c1)[nH]c1ccccc13` [LS1, 6H-Indolo [2,3-b] quinoxaline], the IC50 in assay [2] stood at 3 µM. Further, in assay [3], the “in vitro pUC18 plasmid linearization (DNA cleavage) assay; supported by TOP2 ove” value is given as “LS1 promotes the in vitro formation by yTop2 of DSBs in plasmid DNA (Fig. 7A & B)”.
